Results reported in patent US4532122A, “Anti-trypanosomal activity of platinum co-ordination compounds” (The United States of America as represented by the …, priority 1981, dated 1985).
Entries after “also recorded” stand apart in the source; their conditions may differ.

Tests used:
Trypanosoma rhodesiense [1] = test: 30-day survival and cure of Trypanosoma rhodesiense-infected mice treated with cisplatin; format: in vivo; conditions: for cure, survival and damage on concurrent treatment: hydrated, trypanosome-infected mice, cisplatin and disulfiram or diethyl dithiocarbamate
Method: Laboratory animals of diverse sorts have been employed in studies with trypanosomes. […] This method has been reported in detail: L. Rane, D. S. Rane, and K. E. Kinnamon, Am. J. Trop. Med. Hyg., 25, 395-400 (1976).
(§1) Anti-trypanosomal activity reported in this invention was determined according to the procedure outlined in the article of L. Rane, et al entitled "Screening Large Numbers of Compounds in a Model Based on Mortality of Trypanosoma rhodesiense Infected Mice," The American Journal of Tropical Medicine and Hygiene, Volume 25, No. 3, pages 395-400 ([…]). To summarize, however, experiments were conducted with the Wellcome CT strain of Trypanosoma rhodesiense originally isolated in 1934. The test system is patterned after the one developed and employed in testing of compounds for activity against Plasmodium berghei malaria [see Osdene, et al, New Series of Potential Antimalarial Agents, J. Med. Chem., 10, 431-434 (1967)]. The test system is based on comparisons of responses to test compounds by ICR/HA Swiss mice infected with the strain as expressed in mean survival times compared with mean survival times of untreated controls.
Test mice (of similar age were females and 21 to 25 grams in weight) received an intraperitoneal injection of 0.5 ml of a 1:50,000 dilution of heparinized heart blood drawn from donor mice infected with Trypanosoma rhodesiense 3 days earlier.
Deaths prior to the fourth day (when untreated controls begin to die) were regarded as not related to the infection and were scored as "toxic deaths." Treated animals were kept under observation for 30 days. Parasitemias were monitored by thick blood film smears (taken from tail veins of the mice) every 2 days for the 30-day course of the experiment. Survivors at the end of 30 days were considered cured. […] In calculating mean survival times, toxic deaths and 30 day survivors were not included.
(§2) All groups included 10 mice except where indicated. Therapy was 3 mg/kg
trypanosomes and subsequently given intraperitoneally for number of days
indicated in first column. Disulfiram (250 mg/kgorally) was given exactly
physiologic saline given subcutaneously four times per day. Survival is
given as % survival 30 days following initial therapy.

[2] = Histopathology of mice treated with cisplatin; format: in vivo
Description: Thus, histopathologic studies were requisite.
Two mice from each of these groups were necropsied at various times following cisplatin treatment. […] Tissues were fixed in 10% neutral buffered formalin, imbedded in paraffin, sectioned to 6-8μ and stained with hematoxylin and eosin.

Trypanosoma rhodesiense [3] = test: Subinoculation of tissues (blood, heart, brain) of cured mice into healthy recipient mice; format: in vivo, Trypanosoma rhodesiense in mice; conditions: donors: cisplatin with hydration plus disulfiram
Description: The considerable and complex nature of problems in various developing countries of tropical Africa have been worsened by the increasing incidents of trypanosomiasis. Drugs for the management of this highly fatal infection have been generally inadequate or/and highly toxic to the victim. The present invention relates to a novel means for alleviating the toxic effects of an agent useful in the treatment of highly fatal trypanosome infections in animals. […] However, cures have been achieved safely by concurrent hydration of the animals and oral dosing with disulfiram. This procedure was firmly established as affording parasitologic cures of the experimental animals by subinoculation of tissues (blood, brain, heart) into recipient mice from mice cured of trypanosomiasis in accordance with the method of this invention.
Some animals suffered relapses 6 to 14 days after the last doses. […] All survivors at 30 days were sacrificed, and tissues (blood; heart; brain) subinoculated into healthy mice. […] Thus, no latent trypanosomes had survived the therapy.

[4] = 30-day survival of uninfected (healthy) mice treated with cisplatin, with or without hydration and disulfiram; format: in vivo
Method: Ten animals were used in each of three test procedures for the three regimens of drug dosing. The test procedures included: no hydration of mice; hydration of mice; and hydration plus disulfiram administration to the animals.
as §2
indicated. Disulfiram (250 mg/kgorally) was given exactly four hours
Hydration was 3 ml of physiologic saline
given subcutaneously four times per day. Survival is given as % survival
30 days following initial therapy.
^a Average survival from four experiments with 10 mice per experiment

Trypanosoma rhodesiense [5] = test: Parasitemia in infected mice, monitored by thick blood film smears; format: in vivo
Method: as §1
By using a standard inoculum of 1×10^6 trypanosomes, it was possible to produce a uniform disease fatal to 100% of untreated animals within four to six days, with a mean survival time of 4.45±0.24 days. Test mice (of similar age were females and 21 to 25 grams in weight) received an intraperitoneal injection of 0.5 ml of a 1:50,000 dilution of heparinized heart blood drawn from donor mice infected with Trypanosoma rhodesiense 3 days earlier.
Deaths prior to the fourth day (when untreated controls begin to die) were regarded as not related to the infection and were scored as "toxic deaths." Treated animals were kept under observation for 30 days. Parasitemias were monitored by thick blood film smears (taken from tail veins of the mice) every 2 days for the 30-day course of the experiment. Survivors at the end of 30 days were considered cured. An increase of 100% in mean survival time over control animals was considered as a minimum effective response. In calculating mean survival times, toxic deaths and 30 day survivors were not included.
The therapeutic regimen was that described in Examples 1 through 3.

Trypanosoma rhodesiense [6] = conditions: Kinnamon et al.; peanut oil vehicle; cited from earlier work
[7] = mice treated with cisplatin alone
[8] = no hydration, 3 mg/kg/day i.p., 7 days
[9] = with hydration, 3 mg/kg/day i.p., 7 days
[10] = hydration + disulfiram, cisplatin 3 mg/kg/day, 6 days
[11] = with hydration, 3 mg/kg/day, 6 days

## CCN(CC)C(=S)S [diethyl dithiocarbamate]
Trypanosoma rhodesiense [1]
  cure, survival and damage on concurrent treatment: effected cures of the infection with very good survival and little damage to test animals

## N.N.[Cl][Pt][Cl] [Cisplatin, cis-diamminedichloroplatinum (II)]
[2]; cisplatin alone, necropsied on day 18 or later
  renal cortex findings: multifocal accumulations of lymphoplasmacytic inflammatory cells with areas of tubular regeneration
[2]; [7]
  early renal lesions: acute proximal and distal tubular necrosis
  lesions other than renal: colonic and jejunal enteritis, and interstitial pneumonia with edema and vascular congestion
  renal lesions (frequency): highly common
Trypanosoma rhodesiense [1]; 3 mg/kg/day for 7 days
  curative effects on Trypanosoma rhodesiense infections: does exert curative effects
Trypanosoma rhodesiense [1]
  cure, survival and damage on concurrent treatment: effected cures of the infection with very good survival and little damage to test animals
Trypanosoma rhodesiense [1]; hydration + disulfiram (250 mg/kg orally), cisplatin 3 mg/kg/day i.p., 6 days, average of four experiments
  30-Day survival of trypanosome-infected mice: 62.5%
Trypanosoma rhodesiense [1]; hydration plus disulfiram, cisplatin 3 mg/kg daily for seven days
  cure of Trypanosoma rhodesiense infection: effective in curing mice; also recorded: fully curative, and not merely palliative
Trypanosoma rhodesiense [1]; [8]
  30-Day survival of trypanosome-infected mice: 0%
Trypanosoma rhodesiense [1]; [9]
  30-Day survival of trypanosome-infected mice: 57%
Trypanosoma rhodesiense [1]; with hydration, 7-day regimen
  cure of Trypanosoma rhodesiense infection: effective in curing mice
Trypanosoma rhodesiense [3]
  trypanosome infection in recipient mice after subinoculation of tissues of survivors: did not produce the trypanosomiasis in the recipient mice; also recorded: No recipient mice developed trypanosome infection
[4]; hydration + disulfiram (250 mg/kg orally), cisplatin 3 mg/kg/day i.p., 6 days
  30-Day survival: 100%
[4]; hydration + disulfiram (250 mg/kg orally), cisplatin 3 mg/kg/day i.p., 7 days, average of four experiments
  30-Day survival: 100%
[4]; hydration with or without disulfiram
  mortality from cisplatin administration: ameliorated by hydration, with or without use of disulfiram
[4]; no hydration, 3 mg/kg/day i.p., 5 days
  30-Day survival: 100%
[4]; no hydration, 3 mg/kg/day i.p., 6 days
  30-Day survival: 10%
[4]; [8]
  30-Day survival: 0%
[4]; with hydration, 3 mg/kg/day i.p., 6 days
  30-Day survival: 100%
[4]; [9]
  30-Day survival: 90%
Trypanosoma rhodesiense [5]; cisplatin alone, 3 mg/kg/day, 5 days
  clearance of trypanosomes from bloodstream: failed to clear the bloodstream of trypanosomes
Trypanosoma rhodesiense [5]; [10]
  clearance of trypanosomes from blood: temporarily cleared of trypanosomes; also recorded: Blood of all mice was cleared of trypanosones
  relapse of parasitemia: relapses of parasitemia occurred; also recorded: Relapse of parasitemia
Trypanosoma rhodesiense [5]; no hydration, 3 mg/kg/day, 7 days
  clearance of trypanosomes from blood: Blood of all mice was cleared of trypanosones
Trypanosoma rhodesiense [5]; some animals, hydration + disulfiram, cisplatin 6 daily doses
  time of relapse after the last doses: 6 to 14 days
Trypanosoma rhodesiense [5]; [11]
  clearance of trypanosomes from blood: Blood of all mice was cleared of trypanosones
  relapse of parasitemia: Relapse of parasitemia
Trypanosoma rhodesiense [5]; with hydration, 3 mg/kg/day, 7 days
  clearance of trypanosomes from blood: Blood of all mice was cleared of trypanosones
Trypanosoma rhodesiense [6]
  anti-trypanosomal effects in prior work: anti-trypanosomal effects at dose levels which were unsuitably toxic to the test animals

## CCN(CC)C(=S)SSC(=S)N(CC)CC [Disulfiram, bis-(diethylthiocarbamoyl) disulfide]
[2]; oral disulfiram given with cisplatin
  protection from toxic effects of cisplatin: protected the kidneys and gastrointestinal tracts from the toxic effects
Trypanosoma rhodesiense [1]; disulfiram alone, model test system
  anti-trypanosomal activity of disulfiram alone: lack anti-trypanosomal activity
Trypanosoma rhodesiense [1]
  cure, survival and damage on concurrent treatment: effected cures of the infection with very good survival and little damage to test animals
